The values below come from ChEMBL document CHEMBL1136781, “Comparison of in vitro P-glycoprotein screening assays: recommendations for their use in drug discovery” (J Med Chem, 2003).

Data set [1] in a line: Partition coefficient (logP). In kind it is physicochemical. To be noted: octanol/water.
Data set [2] concerns the target T1, ATP-dependent translocase ABCB1 (Mus musculus, UniProt P06795). Nature of the data set: Inhibition of P-glycoprotein, mouse L-mdr1b expressed in LLC-PK1 epithelial cells using calcein-AM polarisation assay. The format is functional, cell-based.
Data set [3] addresses T2, ATP-dependent translocase ABCB1 (Homo sapiens, UniProt P08183). Put plainly: Inhibition of P-gp was determined using rhodamine-assay in human CaCo-2 cells. The format is functional, cell-based. Set-up: concentration or dose not given beside the values.
Target sequence in this assay (P08183 whole entry): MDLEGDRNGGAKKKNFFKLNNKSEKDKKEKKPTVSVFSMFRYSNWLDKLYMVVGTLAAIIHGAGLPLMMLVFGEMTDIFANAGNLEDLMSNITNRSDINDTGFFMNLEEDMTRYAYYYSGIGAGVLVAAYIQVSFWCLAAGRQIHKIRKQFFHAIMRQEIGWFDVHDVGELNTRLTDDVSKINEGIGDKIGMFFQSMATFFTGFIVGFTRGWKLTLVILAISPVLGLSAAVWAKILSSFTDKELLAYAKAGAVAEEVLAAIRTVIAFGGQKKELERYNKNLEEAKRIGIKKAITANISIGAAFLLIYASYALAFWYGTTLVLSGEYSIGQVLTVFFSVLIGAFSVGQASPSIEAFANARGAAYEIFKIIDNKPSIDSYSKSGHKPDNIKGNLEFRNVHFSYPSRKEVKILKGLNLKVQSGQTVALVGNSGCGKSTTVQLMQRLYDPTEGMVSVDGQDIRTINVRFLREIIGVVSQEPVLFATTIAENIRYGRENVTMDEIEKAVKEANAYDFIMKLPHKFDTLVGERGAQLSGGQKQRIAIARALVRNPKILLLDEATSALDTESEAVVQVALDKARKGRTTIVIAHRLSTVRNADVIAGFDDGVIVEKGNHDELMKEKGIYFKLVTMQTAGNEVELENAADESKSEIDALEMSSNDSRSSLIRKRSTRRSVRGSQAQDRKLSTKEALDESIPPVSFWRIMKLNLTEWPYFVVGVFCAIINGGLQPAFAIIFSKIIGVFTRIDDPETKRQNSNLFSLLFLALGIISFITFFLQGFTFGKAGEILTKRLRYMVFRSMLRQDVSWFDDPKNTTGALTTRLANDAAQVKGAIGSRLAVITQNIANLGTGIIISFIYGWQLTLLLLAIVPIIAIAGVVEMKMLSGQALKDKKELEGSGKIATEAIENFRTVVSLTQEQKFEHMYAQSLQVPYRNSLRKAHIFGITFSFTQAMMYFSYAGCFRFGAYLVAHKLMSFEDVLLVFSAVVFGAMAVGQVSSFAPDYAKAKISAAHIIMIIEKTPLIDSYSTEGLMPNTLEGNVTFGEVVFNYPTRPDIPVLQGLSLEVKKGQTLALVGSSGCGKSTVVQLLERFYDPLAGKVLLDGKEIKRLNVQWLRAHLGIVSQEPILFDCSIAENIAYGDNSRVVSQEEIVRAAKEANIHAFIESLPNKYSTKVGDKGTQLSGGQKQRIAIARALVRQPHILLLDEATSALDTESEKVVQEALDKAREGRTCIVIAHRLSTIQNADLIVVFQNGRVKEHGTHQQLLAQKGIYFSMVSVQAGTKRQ
The target of data set [4] is T2, ATP-dependent translocase ABCB1. Nature of the data set: Inhibition of P-glycoprotein using ATPase in MDR1 membranes. In kind it is functional, cell membranes.
Target sequence in this assay (P08183 whole entry): as above
For data set [5] the target is unchanged. Put plainly: Inhibition of P-glycoprotein, human L-MDR1 expressed in LLC-PK1 epithelial cells using calcein-AM polarisation assay. The format is functional, cell-based.
Target sequence in this assay (P08183 whole entry): as above
Data set [6] concerns the target T3, ATP-dependent translocase ABCB1 (Mus musculus, UniProt P21447). Put plainly: Inhibition of P-glycoprotein, mouse L-mdr1a expressed in LLC-PK1 epithelial cells using calcein-AM polarisation assay. In kind it is functional, cell-based.
In data set [7] the target is T3, ATP-dependent translocase ABCB1. Put plainly: TP_TRANSPORTER: inhibition of Calcein-AM efflux in Mdr1a-expressing LLC-PK1 cells. The format is functional, cell-based.
Data set [8] has as its target T2, ATP-dependent translocase ABCB1. Nature of the data set: TP_TRANSPORTER: inhibition of Rhodamine 123 efflux in Caco-2 cells. The format is functional, cell-based. Set-up: concentration or dose not given beside the values.
Target sequence in this assay (P08183 whole entry): as above
Data set [9] has the same target. Put plainly: TP_TRANSPORTER: inhibition of Calcein-AM efflux in MDR1-expressing LLC-PK1 cells. The format is functional, cell-based.
Target sequence in this assay (P08183 whole entry): as above
The target in data set [10] is T1, ATP-dependent translocase ABCB1. Put plainly: TP_TRANSPORTER: inhibition of Calcein-AM efflux in Mdr1b-expressing LLC-PK1 cells. In kind it is functional, cell-based.
In data set [11] the target is T4, Cytochrome P450 3A4 (Homo sapiens, UniProt P08684).
T4 sequence (P08684 whole entry): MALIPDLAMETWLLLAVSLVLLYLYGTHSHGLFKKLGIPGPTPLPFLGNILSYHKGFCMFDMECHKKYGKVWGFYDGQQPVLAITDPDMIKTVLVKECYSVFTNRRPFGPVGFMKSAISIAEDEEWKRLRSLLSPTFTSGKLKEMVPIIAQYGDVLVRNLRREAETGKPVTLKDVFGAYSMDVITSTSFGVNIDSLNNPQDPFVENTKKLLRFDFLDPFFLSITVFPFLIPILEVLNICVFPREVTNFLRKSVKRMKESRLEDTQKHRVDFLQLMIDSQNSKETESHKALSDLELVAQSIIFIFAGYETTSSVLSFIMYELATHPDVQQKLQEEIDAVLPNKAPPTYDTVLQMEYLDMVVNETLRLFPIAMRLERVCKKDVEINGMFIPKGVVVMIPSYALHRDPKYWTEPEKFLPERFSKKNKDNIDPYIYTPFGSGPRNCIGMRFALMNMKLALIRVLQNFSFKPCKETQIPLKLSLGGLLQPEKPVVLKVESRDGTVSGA
Description: Inhibition of human cytochrome P450 3A4
The target of data set [12] is T3, ATP-dependent translocase ABCB1. Put plainly: P-gp activity was measured by a direct transport assay, using polarized LLC-mdr1a epithelial cells. The format is functional, cell-based. The following applies: human, epithelial cell.
For data set [13] the target is unchanged. Put plainly: P-gp activity was measured by a direct transport assay, using polarized LLC-PK1 epithelial cells. To be noted: human. In kind it is functional, cell-based.
The target of data set [14] is T4, Cytochrome P450 3A4. This is another data set of the same source.
Description: Inhibition of human cytochrome P450 3A4
Data set [15] deals with T2, ATP-dependent translocase ABCB1. Nature of the data set: P-gp activity was measured by a direct transport assay, using polarized LLC-MDR1 epithelial cells. To be noted: epithelial cell.

A value given as a limit tells only on which side of the number the result lay.

T3 sequence (P21447 whole entry): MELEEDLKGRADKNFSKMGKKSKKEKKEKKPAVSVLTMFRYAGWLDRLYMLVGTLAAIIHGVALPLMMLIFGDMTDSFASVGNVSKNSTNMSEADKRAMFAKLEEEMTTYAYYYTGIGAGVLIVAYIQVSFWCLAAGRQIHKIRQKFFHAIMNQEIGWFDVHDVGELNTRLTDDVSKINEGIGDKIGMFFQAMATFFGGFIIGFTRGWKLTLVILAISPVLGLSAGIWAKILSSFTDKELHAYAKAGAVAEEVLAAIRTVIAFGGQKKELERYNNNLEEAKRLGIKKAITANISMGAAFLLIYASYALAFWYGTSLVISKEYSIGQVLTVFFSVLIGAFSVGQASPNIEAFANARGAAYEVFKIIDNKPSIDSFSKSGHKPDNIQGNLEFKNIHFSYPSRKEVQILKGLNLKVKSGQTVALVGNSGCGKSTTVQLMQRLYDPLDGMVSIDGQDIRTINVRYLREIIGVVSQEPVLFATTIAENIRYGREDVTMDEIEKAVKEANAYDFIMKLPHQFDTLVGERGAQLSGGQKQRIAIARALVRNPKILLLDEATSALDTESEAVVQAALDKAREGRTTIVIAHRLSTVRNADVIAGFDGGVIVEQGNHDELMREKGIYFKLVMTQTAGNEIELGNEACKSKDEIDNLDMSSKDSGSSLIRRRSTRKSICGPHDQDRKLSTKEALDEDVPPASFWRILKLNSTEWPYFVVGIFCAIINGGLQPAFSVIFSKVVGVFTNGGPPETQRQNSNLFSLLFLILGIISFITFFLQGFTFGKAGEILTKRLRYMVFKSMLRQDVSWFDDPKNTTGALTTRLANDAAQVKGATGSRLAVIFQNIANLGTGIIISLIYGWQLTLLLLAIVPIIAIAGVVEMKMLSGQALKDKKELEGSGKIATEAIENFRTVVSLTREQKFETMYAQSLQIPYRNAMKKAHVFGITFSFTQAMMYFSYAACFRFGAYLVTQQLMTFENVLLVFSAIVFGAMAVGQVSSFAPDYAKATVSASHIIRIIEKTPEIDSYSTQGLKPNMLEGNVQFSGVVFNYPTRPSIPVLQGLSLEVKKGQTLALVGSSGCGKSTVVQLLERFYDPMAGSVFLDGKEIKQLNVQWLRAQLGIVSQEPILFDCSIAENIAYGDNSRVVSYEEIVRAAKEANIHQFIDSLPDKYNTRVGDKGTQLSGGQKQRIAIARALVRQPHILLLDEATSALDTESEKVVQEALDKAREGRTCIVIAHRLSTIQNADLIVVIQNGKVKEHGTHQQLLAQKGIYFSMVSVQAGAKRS
T1 sequence (P06795 whole entry): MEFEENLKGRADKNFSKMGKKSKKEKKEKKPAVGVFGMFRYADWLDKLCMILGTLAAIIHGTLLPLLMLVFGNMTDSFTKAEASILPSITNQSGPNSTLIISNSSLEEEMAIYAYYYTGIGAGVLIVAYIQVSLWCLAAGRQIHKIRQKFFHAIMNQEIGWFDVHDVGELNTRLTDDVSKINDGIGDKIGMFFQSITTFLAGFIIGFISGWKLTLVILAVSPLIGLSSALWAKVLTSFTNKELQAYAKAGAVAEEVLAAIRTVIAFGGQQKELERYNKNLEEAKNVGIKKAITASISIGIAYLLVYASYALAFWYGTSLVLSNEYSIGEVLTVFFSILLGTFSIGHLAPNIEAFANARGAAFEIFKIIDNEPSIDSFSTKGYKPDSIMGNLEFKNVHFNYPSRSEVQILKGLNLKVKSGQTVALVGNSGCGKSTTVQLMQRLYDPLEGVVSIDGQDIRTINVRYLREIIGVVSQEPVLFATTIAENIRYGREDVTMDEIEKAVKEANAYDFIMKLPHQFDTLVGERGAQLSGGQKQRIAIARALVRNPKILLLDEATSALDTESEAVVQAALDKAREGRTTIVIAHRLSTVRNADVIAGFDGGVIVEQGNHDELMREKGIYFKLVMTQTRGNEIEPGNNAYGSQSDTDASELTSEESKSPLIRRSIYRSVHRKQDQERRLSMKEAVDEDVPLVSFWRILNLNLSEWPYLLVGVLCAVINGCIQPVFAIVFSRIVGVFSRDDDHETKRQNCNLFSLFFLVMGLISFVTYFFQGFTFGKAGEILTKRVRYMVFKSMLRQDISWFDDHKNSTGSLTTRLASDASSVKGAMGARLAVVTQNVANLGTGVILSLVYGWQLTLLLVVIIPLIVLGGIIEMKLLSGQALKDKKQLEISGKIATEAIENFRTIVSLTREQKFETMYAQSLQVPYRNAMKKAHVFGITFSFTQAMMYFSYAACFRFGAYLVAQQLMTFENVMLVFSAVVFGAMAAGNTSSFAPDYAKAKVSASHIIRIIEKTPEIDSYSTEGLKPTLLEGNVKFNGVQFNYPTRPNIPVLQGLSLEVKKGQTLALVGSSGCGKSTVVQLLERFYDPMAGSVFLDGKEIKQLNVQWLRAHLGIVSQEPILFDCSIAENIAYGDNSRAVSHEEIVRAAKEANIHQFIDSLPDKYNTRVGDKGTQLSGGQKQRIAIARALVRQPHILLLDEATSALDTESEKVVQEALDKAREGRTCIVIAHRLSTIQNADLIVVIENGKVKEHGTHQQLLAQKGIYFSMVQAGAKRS

The term logP denotes the decadic logarithm of the partition coefficient of the neutral form, usually between octanol and water. Usually IC50 stands for the concentration at which inhibition is half-maximal. In general, Inhibition refers to the percentage by which the read-out fell short of the control. Take IVERMECTIN: the logP in data set [1] is recorded as 4. For the same compound, the concentration for half-maximal inhibition (IC50) in [2] (llc-pk1) is 0.5 µM; in data set [5] (llc-pk1) it was 0.1 µM; in data set [6] (llc-pk1), 0.5 µM; in data set [7] (llc-pk1), 0.5 µM; in data set [9] (llc-pk1), 0.1 µM; in [10] (llc-pk1) it was 0.5 µM. At Cytochrome P450 3A4 [11], this compound had a concentration for half-maximal inhibition (IC50) greater than 50 µM. Besides, the Inhibition in [3] is given as 34%. In addition, the figures for the Activity in data set [4] and in data set [8] were -3.4 nmol/min/mg and 34%, respectively.
With `CC1(C)S[C@@H]2[C@H](NC(=O)Cc3ccccc3)C(=O)N2[C@H]1C(=O)O` [PENICILLIN G], the Ratio in [12] came to 1.1.
On to `CC1(C)SSC(C)(C)[C@@H](NC(=O)[C@@H](N)Cc2ccc(O)cc2)C(=O)NCC(=O)N[C@@H](Cc2ccccc2)C(=O)N[C@H]1C(=O)O`, for which the log partition coefficient (logP) in data set [1] (read-out: logP) was found to be 1. Besides, the IC50 (in [2]; in data set [6]; in data set [7]; in [10]; against Cytochrome P450 3A4 [14]) was greater than 50 µM throughout. The same compound showed an Inhibition in [3] of 0%. Besides, the values for the Ratio in data set [13], in data set [12] and in data set [15] were 0.8, 0.9 and 0.6, respectively. Moreover, the Activity in data set [4] came to 4 nmol/min/mg; in [8], 0%.
Consider `CC[C@H]1OC(=O)[C@H](C)[C@@H](O[C@H]2C[C@@](C)(OC)[C@@H](O)[C@H](C)O2)[C@H](C)[C@@H](O[C@@H]2O[C@H](C)C[C@H](N(C)C)[C@H]2O)[C@](C)(O)C[C@@H](C)C(=O)[C@H](C)[C@@H](O)[C@]1(C)O` [ERYTHROMYCIN], for which the lipophilicity (logP) in data set [1] (read-out: logP) worked out at 2.5. The same compound returned an Activity in data set [4] of 4 nmol/min/mg. In addition, the IC50 in [6] was greater than 50 µM; against Cytochrome P450 3A4 [14], 33 µM.
Consider `Cc1ncc2n1-c1ccc(Cl)cc1C(c1ccccc1F)=NC2` [MIDAZOLAM], for which the lipophilicity (logP) in data set [1] (read-out: logP) came out at 3.3. The half-inhibitory concentration (IC50) in data set [2] is 33 µM; in data set [5], greater than 50 µM; in data set [6], greater than 50 µM; in data set [7] it was greater than 50 µM; in data set [9] it was greater than 50 µM; in data set [10] it was 33 µM. The compound also gave an Inhibition in data set [3] of 12%. In addition, the Activity in data set [4] turned out to be 6 nmol/min/mg; in data set [8], 12%.
